# Experimental data: patent US20240158430A1, “NOVEL COMPOUND OR SALT THEREOF, AND ANTITUMOR ACTIVATOR CONTAINING SAME AS ACTIVE INGREDIENT” (AKITA UNIVERSITY, priority 2021, published 2024)
# Where two headings read alike, the source gives them in different places.
# What was measured:
# [1] = system: gastric cancer cell line SH-10-TC; experiment: Cell growth inhibitory activity, SH-10-TC; type: cell-based
# Procedure: [The source words this procedure for another cell line and reports this cell line under the same test.] (§1) The cell growth inhibitory activity against a colorectal cancer cell line HCT116 was measured. As an index of cell growth inhibitory activity, a concentration at which cell growth was inhibited by 50% as compared with a control (IC50) was used. The method is as follows. HCT116 was added to a 6-well plate by 5×10^4, compounds having various concentrations were added after 24 hours, and the number of cells was counted after 72 hours of culture. As the control, DMSO was used in an amount equal to the amount added in accordance with the addition concentration of the highest-concentration compound. The number of cells at each concentration relative to the control was expressed as a percentage.
# (§2) The method is as described above.
# HCT116 = experiment: Cytocidal effect, HCT116; type: cell-based; conditions: 2 μM and 5 μM, cells counted after 48 and 72 hours
# Procedure: The method is as follows. Each cell line was added to 6-well plate by 5×10^4, 2 μM and 5 μM of GO-Y199 were added after 24 hours, and the number of cells was counted after 48 hours and 72 hours.
# [2] = system: colorectal cancer cell line HCT116; experiment: Cell growth inhibitory activity, HCT116; type: cell-based
# Procedure: as §1, §2
# (§3) The cell growth inhibitory activity (IC50) of each of curcumin, GO-Y199, and GO-Y206 against the colorectal cancer cell lines DLD-1 and HCT116 and the gastric cancer cell lines KATO III and H-111-TC was measured. The method is as described above.
# MSTO-211H cells = experiment: Antitumor effect on malignant mesothelioma cells, animal model; type: in vivo, nude mice
# Procedure: An animal model was used to investigate the antitumor effect of GO-Y199 on malignant mesothelioma cells. The method is as follows. 2.8×10^6 MSTO-211H cells were intraperitoneally transplanted into each of 5 nude mice. From Day 5, 43 μL of 100 mM GO-Y199 in DMSO was diluted to 500 μL with PBS and intraperitoneally administered to the mice (equivalent to 5 mg of GO-Y199). As a control group, a DMSO-PBS solution having the equivalent concentration was intraperitoneally administered to each of four nude mice to which MSTO-211H cells were intraperitoneally transplanted in the same manner. The administration was performed 5 times in total at intervals of 5 days. After 30 days, the mice were sacrificed, necropsied, and analyzed.
# [3] = system: breast cancer cell line HCC70; experiment: Cell growth inhibitory activity, HCC70; type: cell-based
# Procedure: [The source words this procedure for another cell line and reports this cell line under the same test.] as §1, §2
# [4] = Blood concentration after intravenous injection; type: in vivo, BALB/cSlc-nu/+ mice; conditions: mouse, 1 mg tail vein
# Procedure: The blood concentration of GO-Y199 after intravenous injection was investigated. The method is as follows. To BALB/cSlc-nu/+ mice, the equivalent of 1 mg of GO-Y199 was injected into the tail vein as described above, blood was collected from the orbital vein over time, and the serum was subjected to HPLC to measure the blood concentration of GO-Y199. FIG. 27 indicates results of HPLC analysis of blood after intravenous injection. FIG. 28 indicates results of changes over time in the blood concentration of GO-Y199 after intravenous injection.
# [5] = system: gastric cancer cell line H-111-TC; experiment: Cell growth inhibitory activity, H-111-TC; type: cell-based; conditions: Table 6
# Procedure: as §1, with “percentage. In Table 3, the turbidities of the compounds are also indicated.” for “percentage.”
# as §3, with “above. FIG. 8 indicates the results of cell growth inhibitory activity of these compounds against various cancer cell lines.” for “above.”
# [6] = system: cutaneous T-cell lymphoma cell line HUT78; experiment: Cell growth inhibitory activity, HUT78; type: cell-based; conditions: Table 10
# Procedure: [The source words this procedure for another cell line and reports this cell line under the same test.] as §1, §2
# pSTAT3 = experiment: Influence on pSTAT3, immunohistochemistry; type: cell-based; conditions: 2 μM; 24 hours; control 10.2±1.6%
# Procedure: The influence of GO-Y199 on NF-kB (p65) was investigated. The method is as follows. 3×10^6 cells of the HCT116 cell line were added to a 10-cm plate, 2 μM of GO-Y199 was added after 24 hours, the cells were collected after 24 hours, embedded in iPGell (GenOStaff), and fixed in formalin, paraffin blocks were then prepared, and immuno-histochemistry was performed with an anti-NF-kB (p65) antibody. In addition, 2 μM and 5 μM of GO-Y199 were added, lysates were collected after 24 hours, and an expression level of NF-kB (p65) was analyzed using an ELISA-plate (NF-kBp65 (pS536) SimpleStep-ELISA-kit, Abcam). An amount of protein was corrected by the absorbance of A 280 nm. The upper part of FIG. 14 indicates photographs of the control group and the GO-Y199 (2 μM)-added group after 24 hours. The lower part of FIG. 14 indicates results of the t-test of these groups after 24 hours. FIG. 15 indicates the comparison results of the NF-kB inhibitory effect of GO-Y199 (2 μM, 5 μM)-added groups with respect to the control group.
# The influence of GO-Y199 on pSTAT3 was investigated. The method is as described above. Immunohistochemistry was performed with an anti-pSTAT3 antibody. The upper part of FIG. 16 indicates photographs of the control group and the GO-Y199 (2 μM)-added group after 24 hours. The lower part of FIG. 16 indicates results of the t-test of these groups after 24 hours.
smiles,measurement,setting,value
COCOc1cc(/C=C/C(=O)CC(SCCOCCOCCOCCOCc2cn([C@@H]3O[C@H](CO)[C@@H](O[C@@H]4O[C@H](CO)[C@H](O)[C@H](O)[C@H]4O)[C@H](O)[C@H]3O)nn2)c2cc(OCOC)cc(OCOC)c2)cc(OCOC)c1 (stereo partly shown) [GO-Y199],IC50,"[1]; Table 4, 72 hours",1 µM
same,"GO-Y199 vs GO-Y030 (IC50 comparison), SH-10-TC","[1]; Table 5, ratio of IC50",0.65
same,"GO-Y199 vs curcumin (IC50 comparison), SH-10-TC","[1]; Table 5, ratio of IC50",0.124
same,cytocidal effect,HCT116,cytocidal effect
same,IC50,"[2]; Table 3, HCT116, cell count after 72 hours of culture vs DMSO control, read-out: IC50",0.43 µM
same,"GO-Y199 vs GO-Y030 (IC50 comparison), HCT-116","[2]; Table 5, ratio of IC50",0.65
same,"GO-Y199 vs curcumin (IC50 comparison), HCT-116","[2]; Table 5, ratio of IC50",0.029
same,IC50,"[2]; Table 6, read-out: IC50 (μM) HCT116",0.98 µM
same,IC50,"[2]; read-out: IC50 HCT-116, Table 4, 72 hours",0.46 µM
same,animals with microscopic peritoneal disseminated lesions,"MSTO-211H cells; 5 mg i.p., 5 times at intervals of 5 days, after 30 days, control 75%",80%
same,size (maximum diameter) of disseminated nodule,"MSTO-211H cells; 5 mg i.p., 5 times, after 30 days, control 6 to 13 mm",5 mm
same,animals with disseminated nodule of maximum diameter exceeding 5 mm,"MSTO-211H cells; 5 mg i.p., 5 times, after 30 days, control 100%",20%
same,"pathologic analysis, inside of the disseminated nodule",MSTO-211H cells; control filled with tumor cells,necrotic
same,tumor formation at the puncture site,MSTO-211H cells; not observed in control group,one animal
same,IC50,"[3]; Table 4, 72 hours",0.54 µM
same,"GO-Y199 vs GO-Y030 (IC50 comparison), HCC70","[3]; Table 5, ratio of IC50",0.24
same,time for which the blood concentration is maintained,[4],3 h
same,time after which GO-Y199 disappeared from the blood,[4]; serum HPLC,180 min
same,time until which the blood concentration rapidly decreased,[4]; serum HPLC,60 min
same,IC50,[5],2.9 µM
same,IC50,[6],0.84 µM
same,relative expression level of pSTAT3,pSTAT3,0.3±0.5%
